Results taken from patent publication US9546152B2 (MERCK SHARP & DOHME CORP., priority 2012, dated 2017).

Columns and labels:
rat orexin-1 receptor = rat orexin-1 receptor (Rattus norvegicus (Rat), UniProt P56718); test: FLIPR Ca2+ Flux Assay, orexin-1 receptor; format: cell-based; conditions: CHO cells expressing the rat orexin-1 receptor; agonist 70 pM Ala-6,12 human orexin-A; read-out: hOX1R FLIPR IC50
Procedure: In a typical experiment the OX1 and OX2 receptor antagonistic activity of the compounds of the present invention was determined in accordance with the following experimental method. For intracellular calcium measurements, Chinese hamster ovary (CHO) cells expressing the rat orexin-1 receptor or the human orexin-2 receptor, are grown in Iscove's modified DMEM containing 2 mM L-glutamine, […], 1% hypoxanthine-thymidine supplement, 100 U/ml penicillin, 100 μg/ml streptomycin and 10% heat-inactivated fetal calf serum (FCS). The cells are seeded at 20,000 cells/well into Becton-Dickinson black 384-well clear bottom sterile plates coated with poly-D-lysine. All reagents were from GIBCO-Invitrogen Corp. The seeded plates are incubated overnight at 37° C. and 5% CO2. Ala-6,12 human orexin-A as the agonist is prepared as a 1 mM stock solution in 1% bovine serum albumin (BSA) and diluted in assay buffer (HBSS containing 20 mM HEPES, 0.1% BSA and 2.5 mM probenecid, pH7.4) for use in the assay at a final concentration of 70 pM. Test compounds are prepared as 10 mM stock solution in DMSO, then diluted in 384-well plates, first in DMSO, then assay buffer. On the day of the assay, cells are washed 3 times with 100 μl assay buffer and then incubated for 60 min (37° C., 5% CO2) in 60 μl assay buffer containing 1 μM Fluo-4AM ester, 0.02% pluronic acid, and 1% BSA. The dye loading solution is then aspirated and cells are washed 3 times with 100 μl assay buffer. 30 μl of that same buffer is left in each well. Within the Fluorescent Imaging Plate Reader (FLIPR, Molecular Devices), test compounds are added to the plate in a volume of 25 μl, incubated for 5 min and finally 25 μl of agonist is added. Fluorescence is measured for each well at 1 second intervals for 5 minutes and the height of each fluorescence peak is compared to the height of the fluorescence peak induced by 70 pM Ala-6,12 orexin-A with buffer in place of antagonist. […] Alternatively, compound potency can be assessed by a radioligand binding assay (described in Bergman et. al. Bioorg. Med. Chem. Lett. 2008, 18, 1425-1430) in which the inhibition constant (Ki) is determined in membranes prepared from CHO cells expressing either the OX1 or OX2 receptor. The intrinsic orexin receptor antagonist activity of a compound which may be used in the present invention may be determined by these assays.

human orexin-2 receptor [1] = biological target: T1, human orexin-2 receptor (Homo sapiens (Human), UniProt O43614); test: radioligand binding assay, orexin-2 receptor; conditions: membranes prepared from CHO cells expressing the OX2 receptor; read-out: hOX2R BIND hKi
T1 sequence (O43614 whole entry): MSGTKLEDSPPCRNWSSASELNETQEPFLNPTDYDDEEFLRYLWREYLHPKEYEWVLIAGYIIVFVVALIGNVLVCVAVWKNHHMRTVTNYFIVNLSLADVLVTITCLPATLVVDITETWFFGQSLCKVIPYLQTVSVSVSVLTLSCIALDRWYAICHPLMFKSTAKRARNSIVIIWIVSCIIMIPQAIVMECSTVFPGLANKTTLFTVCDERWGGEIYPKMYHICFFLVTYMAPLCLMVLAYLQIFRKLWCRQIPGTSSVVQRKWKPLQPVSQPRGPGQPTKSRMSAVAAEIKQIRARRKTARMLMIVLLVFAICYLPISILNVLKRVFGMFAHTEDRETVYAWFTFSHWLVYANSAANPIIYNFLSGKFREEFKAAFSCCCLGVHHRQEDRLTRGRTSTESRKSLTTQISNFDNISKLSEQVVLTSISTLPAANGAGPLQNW

human orexin-2 receptor [2] = biological target: T1, human orexin-2 receptor; test: FLIPR Ca2+ Flux Assay, orexin-2 receptor; format: cell-based; conditions: CHO cells expressing the human orexin-2 receptor; agonist 70 pM Ala-6,12 human orexin-A; read-out: hOX2R FLIPR IC50
Procedure, shortened: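 CHO cells expressing rat OX1 or human OX2 receptor, Fluo-4AM loaded; compounds preincubated 5 min, then challenged with 70 pM Ala-6,12 human orexin-A in HBSS/20 mM HEPES/0.1% BSA/2.5 mM probenecid, pH 7.4. FLIPR fluorescence peak height over 5 min compared with agonist-only response.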

rat orexin-1 receptor, sequence (P56718 whole entry): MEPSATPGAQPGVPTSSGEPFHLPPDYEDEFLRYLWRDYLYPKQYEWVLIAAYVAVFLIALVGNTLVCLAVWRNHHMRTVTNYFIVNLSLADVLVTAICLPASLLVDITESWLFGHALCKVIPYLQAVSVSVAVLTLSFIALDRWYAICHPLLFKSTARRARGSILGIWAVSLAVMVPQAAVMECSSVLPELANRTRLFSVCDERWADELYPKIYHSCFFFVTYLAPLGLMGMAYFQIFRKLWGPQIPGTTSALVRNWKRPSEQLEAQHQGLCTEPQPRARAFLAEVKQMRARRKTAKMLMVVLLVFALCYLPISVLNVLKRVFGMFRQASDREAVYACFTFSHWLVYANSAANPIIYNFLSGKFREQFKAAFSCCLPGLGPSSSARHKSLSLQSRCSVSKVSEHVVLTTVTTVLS

Compound | IC50 (rat orexin-1 receptor) [µM] | Ki (human orexin-2 receptor [1]) [µM] | IC50 (human orexin-2 receptor [2]) [µM]
Cc1cccc(C(=O)N2C[C@H](Oc3nccc(C#N)c3C)CC[C@H]2C)c1-n1nccn1 [Example 13, 3-methyl-2-{[(3R,6R)-6-methyl-1-{[3-methyl-2-(2H-1,2,3-triazol-2-yl)phenyl]carbonyl}piperidin-3-yl]oxy}pyridine-4-carbonitrile] | 0.215 | 0.0002 | 0.009
Cc1c(C#N)ccnc1O[C@@H]1CC[C@@H](C)N(C(=O)c2ccc(Br)nc2-n2nccn2)C1 [Example 89, 2-{[(3R,6R)-1-{[6-Bromo-2-(2H-1,2,3-triazol-2-yl)pyridin-3-yl]carbonyl}-6-methylpiperidin-3-yl]oxy}-3-methylpyridine-4-carbonitrile] | > 10 | 0.0051 | 0.029
Cc1c(C#N)ccnc1O[C@@H]1CC[C@@H](C)N(C(=O)c2cc(F)ccc2-c2nccs2)C1 [Example 28, 2-{[(3R,6R)-1-{[5-fluoro-2-(1,3-thiazol-2-yl)phenyl]carbonyl}-6-methylpiperidin-3-yl]oxy}-3-methylpyridine-4-carbonitrile] | 0.412 | 0.0001 | 0.005
C=Cc1ccc(C(=O)N2C[C@H](Oc3nccc(C#N)c3C)CC[C@H]2C)c(-n2nccn2)n1 [Example 90, 2-{[(3R,6R)-1-{[6-ethenyl-2-(2H-1,2,3-triazol-2-yl)pyridin-3-yl]carbonyl}-6-methylpiperidin-3-yl]oxy}-3-methylpyridine-4-carbonitrile] | > 10 | 0.0129 | 0.088
Cc1c(C#N)ccnc1O[C@@H]1CC[C@@H](C)N(C(=O)c2ccsc2-c2cscn2)C1 [Example 31, 3-methyl-2-{[(3R,6R)-6-methyl-1-{[2-(1,3-thiazol-4-yl)thiophen-3-yl]carbonyl}piperidin-3-yl]oxy}pyridine-4-carbonitrile] | 2.03 | 0.0008 | 0.011
Cc1c(C#N)ccnc1O[C@@H]1CC[C@@H](C)N(C(=O)c2ccc(CO)cc2-c2ccccc2)C1 [Example 54, 2-{[(3R,6R)-1-{[5-(hydroxymethyl)biphenyl-2-yl]carbonyl}-6-methylpiperidin-3-yl]oxy}-3-methylpyridine-4-carbonitrile] | 1.39 | 0.0032 | 0.037
C[C@@H]1CC[C@@H](Oc2nccc(C#N)c2Cl)CN1C(=O)c1ccccc1-n1nccn1 [Example 91, 3-Chloro-2-{[(3R,6R)-6-methyl-1-{[2-(2H-1,2,3-triazol-2-yl)phenyl]carbonyl}piperidin-3-yl]oxy}pyridine-4-carbonitrile] | 1.6 | 0.0008 | 0.008
COc1c(C#N)ccnc1O[C@@H]1CC[C@@H](C)N(C(=O)c2c(F)cccc2-n2nccn2)C1 [Example 100, 2-{[(3R,6R)-1-{[2-fluoro-6-(2H-1,2,3-triazol-2-yl)phenyl]carbonyl}-6-methylpiperidin-3-yl]oxy}-3-methoxypyridine-4-carbonitrile] | 1.44 | 0.0003 | 0.025
Cc1c(C#N)ccnc1O[C@@H]1CC[C@@H](C)N(C(=O)c2cc(Cl)ccc2-n2nccn2)C1 [Example 3, 2-{[(3R,6R)-1-{[5-chloro-2-(2H-1,2,3-triazol-2-yl)phenyl]carbonyl}-6-methylpiperidin-3-yl]oxy}-3-methylpyridine-4-carbonitrile] | 4.73 | 0.0117 | 0.128
COc1ccc(C(=O)N2C[C@H](Oc3nccc(C#N)c3C)CC[C@H]2C)c(-c2ccn(C)n2)n1 [Example 81, 2-{[(3R,6R)-1-{[6-methoxy-2-(1-methyl-1H-pyrazol-3-yl)pyridin-3-yl]carbonyl}-6-methylpiperidin-3-yl]oxy}-3-methylpyridine-4-carbonitrile] | 10 | 0.0084 | 0.0646
COc1ccc(C(=O)N2C[C@H](Oc3nccc(C#N)c3C)CC[C@H]2C)c(-c2cccnc2)n1 [Example 82, 2-({(3R,6R)-1-[(6-methoxy-2,3′-bypyridin-3-yl)carbonyl]-6-methylpiperidin-3-yl}oxy)-3-methylpyridine-4-carbonitrile] | 8.41 | 0.0024 | 0.0554
